Legend:
Type in all cases: in vivo, rat
[1] = Brain total phospholipid and phospholipid class FA concentrations (GC-FID); conditions: MEP vs vehicle
Source text: Total lipids from one brain hemisphere and from plasma were extracted by the method of Folch, Lees, and Sloane Stanley ([39]). Isolation of various neutral lipid and phospholipid classes from the total lipid extract was previously described by Chen, Liu, and Bazinet ([6]).
Brain FA concentrations from total and phospholipid classes were quantified as described by Chen, Liu, and Bazinet ([6]).

[2] = Radioactivity in brain lipid fractions after 5 min intravenous 14C-tracer infusion (TLC, LSC); conditions: MEP vs vehicle
Protocol: (§1) Twenty-four hours postsurgery, a second catheter (iv catheter 24 gauge/0.75 inch, Angiocath™; Becton Dickinson) was implanted into the tail vein where rats received either vehicle or 10 mg/kg of MEP. Ten minutes post injection of vehicle or MEP, the tail vein catheter was connected to a syringe containing radiolabeled ^14C-palmitate (n = 8), ^14C-DHA (n = 6), or ^14C-EPA (n = 7) attached to a computer-controlled variable speed pump (PHD 22/2000; Harvard Apparatus, Holliston, MA). […] Each rat received a dose of 76 μCi ^14C-palmitate, 76 μCi ^14C-DHA, or 78 μCi ^14C-EPA. […] The radiotracer infusions continued until rats were euthanized. The brain was excised and cut sagittally. Both hemispheres were stored at −80°C for radioactive and biochemical analyses. Plasma was isolated from whole blood via microcentrifugation at 6,200 rpm (2,000 g) for 5 min and stored at −80°C. Total lipids from one brain hemisphere and from plasma were extracted by the method of Folch, Lees, and Sloane Stanley ([39]). Isolation of various neutral lipid and phospholipid classes from the total lipid extract was previously described by Chen, Liu, and Bazinet ([6]). FA methyl esters and radioactive acyl-CoA analysis were previously described by Chen, Liu, and Bazinet ([6]).

[3] = tested on: mitochondrial FA β-oxidation; assay: Radioactivity in brain aqueous fraction (marker of β-oxidation) after 5 min intravenous 14C-tracer infusion; conditions: MEP 10 mg/kg iv 10 min before infusion
Protocol: as §1, with “([6]).” for “([6]). FA methyl esters and radioactive acyl-CoA analysis were previously described by Chen, Liu, and Bazinet ([6]).”

Compound: CCCCCCCCCCCCCCC1(C(=O)OC)CO1 (stereo not shown) [MEP, methyl-2-tetradecylglycidate, reference compound]
- reduction in ARA from PtdSer [1]: 8%
- reduction in linoleate from EtnGpl [1]: 9%
- increase in radioactivity of PtdSer ([2]; 14C-EPA-infused rats): 49%
- increase in radioactivity of PtdIns ([2]; 14C-palmitate-infused rats): 65%
- reduction of radioactivity in brain aqueous fraction ([3]; 14C-DHA-infused rats): 23%
- reduction of radioactivity in brain aqueous fraction ([3]; 14C-EPA-infused rats): 54%
- reduction of radioactivity in brain aqueous fraction ([3]; 14C-palmitate-infused rats): 74%

From publication PMC3735939, “The low levels of eicosapentaenoic acid in rat brain phospholipids are maintained via multiple redundant mechanisms” (Journal of Lipid Research, 2013)
